target: His-tagged recombinant human TrkA (Homo sapiens (Human), UniProt P04629); assay: TrkA LanthaScreen Eu Kinase Binding Assay; details: averaged IC50; TR-FRET binding, 60 min, 22° C.; read-out: TrkA Enzyme IC50
Procedure: TrkA binding activity was determined in a TrkA LanthaScreen™ Eu Kinase Binding Assay. 5 nM His-tagged recombinant human TrkA (6HIS tagged cytoplasmic domain from Invitrogen, Catalog No. PV3144) was incubated with 4 nM Alexa-Fluor® Tracer 236 (Invitrogen Cat. No. PV5592), 2 nM biotinylated anti-His (Invitrogen Cat. No. PV6090), and 2 nM europium-labeled Streptavidin (Invitrogen Cat. No. PV5899), in buffer (25 mM MOPS, pH 7.5, 5 mM MgCl2, 0.005% Triton X-100). Three fold serial dilutions of compounds of the invention in DMSO were added to a final percentage of 2% DMSO. After 60-minute incubation at 22° C., the reaction was measured using the EnVision mutlimode plate reader (PerkinElmer) via TR-FRET dual wavelength detection at […]. The percent of control was calculated using a ratiometric emission factor. The IC50 values were determined by fitting a four parameter model to the percent of control data.

Sequence of His-tagged recombinant human TrkA (P04629 440-796): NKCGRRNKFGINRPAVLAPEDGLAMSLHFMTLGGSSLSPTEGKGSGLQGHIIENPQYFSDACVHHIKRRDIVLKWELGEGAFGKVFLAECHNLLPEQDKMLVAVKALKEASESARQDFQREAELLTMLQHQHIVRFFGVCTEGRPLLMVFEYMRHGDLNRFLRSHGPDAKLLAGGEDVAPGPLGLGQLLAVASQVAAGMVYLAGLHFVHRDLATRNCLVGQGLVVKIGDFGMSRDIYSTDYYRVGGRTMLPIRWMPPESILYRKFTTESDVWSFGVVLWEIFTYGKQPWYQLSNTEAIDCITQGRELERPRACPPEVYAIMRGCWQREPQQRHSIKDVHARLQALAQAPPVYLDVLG

IC50 | SMILES
< 100 nM | COC(=O)c1ccc2c(c1)[C@@H](NC(=O)Nc1c(C)c(C)nn1-c1ccccc1)[C@H](O)CC2(C)C (relative stereo) [Example 99, trans-methyl 8-(3-(3,4-dimethyl-1-phenyl-1H-pyrazol-5-yl)ureido)-7-hydroxy-5,5-dimethyl-5,6,7,8-tetrahydronaphthalene-2-carboxylate]
< 100 nM | Cc1c(-c2cnn(C)c2)nn(-c2ccccc2)c1NC(=O)N[C@@H]1c2ccccc2CC[C@H]1O (relative stereo) [Example 101, 1-(1′,4-dimethyl-1-phenyl-1H,1′H-[3,4′-bipyrazol]-5-yl)-3-(trans-2-hydroxy-1,2,3,4-tetrahydronaphthalen-1-yl)urea]
< 100 nM | COCc1ccc2c(c1)[C@@H](NC(=O)Nc1c(C)c(-c3cnn(C)c3)nn1-c1ccccc1)[C@H](O)CC2(C)C (relative stereo) [Example 102, 1-(1′,4-dimethyl-1-phenyl-1H,1′H-[3,4′-bipyrazol]-5-yl)-3-(trans-2-hydroxy-7-(methoxymethyl)-4,4-dimethyl-1,2,3,4-tetrahydronaphthalen-1-yl)urea]
< 100 nM | Cc1c(-c2cnn(C)c2)nn(-c2ccccc2)c1NC(=O)N[C@@H]1c2cc(Cl)ccc2C(C)(C)C[C@H]1O (relative stereo) [Example 104, 1-(trans-7-chloro-2-hydroxy-4,4-dimethyl-1,2,3,4-tetrahydronaphthalen-1-yl)-3-(1′,4-dimethyl-1-phenyl-1H,1′H-[3,4′-bipyrazol]-5-yl)urea]
< 100 nM | Cc1c(-c2cnn(C)c2)nn(-c2ccccc2)c1NC(=O)N[C@@H]1c2ccccc2C(C)(C)C[C@H]1O (relative stereo) [Example 105, 1-(1′,4-dimethyl-1-phenyl-1H,1′H-[3,4′-bipyrazol]-5-yl)-3-(trans-2-hydroxy-4,4-dimethyl-1,2,3,4-tetrahydronaphthalen-1-yl)urea]
< 100 nM | Cc1c(-c2ccc(=O)n(C)c2)nn(-c2ccccc2)c1NC(=O)N[C@@H]1c2ccccc2C(C)(C)C[C@H]1O (relative stereo) [Example 106, 1-(trans-2-hydroxy-4,4-dimethyl-1,2,3,4-tetrahydronaphthalen-1-yl)-3-(4-methyl-3-(1-methyl-6-oxo-1,6-dihydropyridin-3-yl)-1-phenyl-1H-pyrazol-5-yl)urea]
< 100 nM | Cc1c(-c2ccn(C)c(=O)c2)nn(-c2ccccc2)c1NC(=O)N[C@@H]1c2ccccc2C(C)(C)C[C@H]1O (relative stereo) [Example 107, 1-(trans-2-hydroxy-4,4-dimethyl-1,2,3,4-tetrahydronaphthalen-1-yl)-3-(4-methyl-3-(1-methyl-2-oxo-1,2-dihydropyridin-4-yl)-1-phenyl-1H-pyrazol-5-yl)urea]
< 100 nM | Cc1ncc(-c2nn(-c3ccccc3)c(NC(=O)N[C@@H]3c4ccccc4CC[C@H]3O)c2C)cn1 (relative stereo) [Example 118, 1-(trans-2-hydroxy-1,2,3,4-tetrhydronaphthalen-1-yl)-3-(4-methyl-3-(2-methylpyrimidin-5-yl)-1-phenyl-1H-pyrazol-5-yl)urea]
< 100 nM | COc1ncc(-c2nn(-c3ccccc3)c(NC(=O)N[C@@H]3c4ccccc4CC[C@H]3O)c2C)cn1 (relative stereo) [Example 119, 1-(trans-2-hydroxy-1,2,3,4-tetrahydronaphthalen-1-yl)-3-(3-(2-methoxypyrimidin-5-yl)-4-methyl-1-phenyl-1H-pyrazol-5-yl)urea]
< 100 nM | CNC(=O)c1nn(-c2ccccc2)c(NC(=O)N[C@@H]2c3cc(COC)ccc3C(C)(C)C[C@H]2O)c1C (relative stereo) [Example 120, 5-(3-(trans-2-hydroxy-7-(methoxymethyl)-4,4-dimethyl-1,2,3,4-tetrahydronaphthalen-1-yl)ureido)-N,4-dimethyl-1-phenyl-1H-pyrazole-3-carboxamide]
< 100 nM | Cc1nn(-c2ccccc2)c(NC(=O)N[C@@H]2c3ccccc3CC[C@H]2O)c1C (relative stereo) [Example 121, 1-(3,4-dimethyl-1-phenyl-1H-pyrazol-5-yl)-3-(trans-2-hydroxy-1,2,3,4-tetrahydronaphthalen-1-yl)urea]
< 100 nM | Cc1c(OCC2CCN(C)CC2)nn(-c2ccccc2)c1NC(=O)N[C@@H]1c2ccccc2C(C)(C)C[C@H]1O (relative stereo) [Example 122, 1-(trans-2-hydroxy-4,4-dimethyl-1,2,3,4-tetrahydronaphthalen-1-yl)-3-(4-methyl-3-((1-methylpiperidin-4-yl)methoxy)-1-phenyl-1H-pyrazol-5-yl)urea]
< 100 nM | Cc1c(OCC2CCN(C)CC2)nn(-c2ccccc2)c1NC(=O)N[C@@H]1c2ccccc2CC[C@H]1O (relative stereo) [Example 123, 1-(trans-2-hydroxy-1,2,3,4-tetrahydronaphthalen-1-yl)-3-(4-methyl-3-((1-methylpiperidin-4-yl)methoxy)-1-phenyl-1H-pyrazol-5-yl)urea]
< 100 nM | CNC(=O)c1nn(-c2ccccc2)c(NC(=O)N[C@@H]2c3ccccc3C(C)(C)C[C@H]2O)c1C (relative stereo) [Example 124, 5-(3-(trans-2-hydroxy-4,4-dimethyl-1,2,3,4-tetrahydronaphthalen-1-yl)ureido)-N,4-dimethyl-1-phenyl-1H-pyrazole-3-carboxamide]
< 100 nM | CNC(=O)c1nn(-c2ccccc2)c(NC(=O)N[C@@H]2c3cc(Cl)ccc3C(C)(C)C[C@H]2O)c1C (relative stereo) [Example 125, 5-(3-(trans-7-chloro-2-hydroxy-4,4-dimethyl-1,2,3,4-tetrahydronaphthalen-1-yl)ureido)-N,4-dimethyl-1-phenyl-1H-pyrazole-3-carboxamide]
100 to 1000 nM | Cc1nn(-c2ccccc2)c(NC(=O)N[C@@H]2c3ccccc3CCC[C@H]2O)c1C (relative stereo) [Example 126, 1-(3,4-dimethyl-1-phenyl-1H-pyrazol-5-yl)-3-(trans-6-hydroxy-6,7,8,9-tetrahydro-5H-benzo[7]annulen-5-yl)urea]
100 to 1000 nM | Cc1ncc(-c2nn(-c3ccccc3)c(NC(=O)N[C@@H]3c4ccccc4CCC[C@H]3O)c2C)cn1 (relative stereo) [Example 127, 1-(trans-6-hydroxy-6,7,8,9-tetrahydro-5H-benzo[7]annulen-5-yl)-3-(4-methyl-3-(2-methylpyrimidin-5-yl)-1-phenyl-1H-pyrazol-5-yl)urea]
100 to 1000 nM | COc1ncc(-c2nn(-c3ccccc3)c(NC(=O)N[C@@H]3c4ccccc4CCC[C@H]3O)c2C)cn1 (relative stereo) [Example 128, 1-(trans-6-hydroxy-6,7,8,9-tetrahydro-5H-benzo[7]annulen-5-yl)-3-(3-(2-methoxypyrimidin-5-yl)-4-methyl-1-phenyl-1H-pyrazol-5-yl)urea]
< 100 nM | Cc1c(-c2cnn(C)c2)nn(-c2ccccc2)c1NC(=O)N[C@@H]1c2ccccc2C2(CCC2)[C@H]1O (relative stereo) [Example 142, 1-(1′,4-dimethyl-1-phenyl-1H,1′H-[3,4′-bipyrazol]-5-yl)-3-(trans-2′-hydroxy-2′,3′-dihydrospiro[cyclobutane-1,1′-inden]-3′-yl)urea]
< 100 nM | COc1nn(-c2ccccc2)c(NC(=O)N[C@@H]2c3ccccc3C3(CC3)C[C@H]2O)c1C (relative stereo) [Example 152, 1-(trans-3′-hydroxy-3′,4′-dihydro-2′H-spiro[cyclopropane-1,1′-naphthalen]-4′-yl)-3-(3-methoxy-4-methyl-1-phenyl-1H-pyrazol-5-yl)urea]
< 100 nM | COc1nn(-c2ccccc2)c(NC(=O)N[C@@H]2c3ccccc3OC3(CCC3)[C@H]2O)c1C (relative stereo) [Example 159, 1-(trans-3-hydroxyspiro[chroman-2,1′-cyclobutan]-4-yl)-3-(3-methoxy-4-methyl-1-phenyl-1H-pyrazol-5-yl)urea]
< 100 nM | Cc1c(-c2cnn(C)c2)nn(-c2ccccc2)c1NC(=O)N[C@@H]1c2ccccc2OC2(CCC2)[C@H]1O (relative stereo) [Example 160, 1-(1′,4-dimethyl-1-phenyl-1H,1′H-[3,4′-bipyrazol]-5-yl)-3-(trans-3-hydroxyspiro[chroman-2,1′-cyclobutan]-4-yl)urea]
100 to 1000 nM | Cc1c(-c2cnn(C)c2)nn(-c2ccccc2)c1NC(=O)N[C@H]1c2ccccc2C2(CC2)[C@@H]1O (stereo in doubt) [Example 138, 1-(1′,4-dimethyl-1-phenyl-1H,1′H-[3,4′-bipyrazol]-5-yl)-3-((2′S,3′S)-2′-hydroxy-2′,3′-dihydrospiro[cyclopropane-1,1′-inden]-3′-yl)urea]
< 100 nM | Cc1c(-c2cnn(C)c2)nn(-c2ccccc2)c1NC(=O)NC1CCCc2ccccc21 (centres unmarked) [Example 1, 1-(1′,4-dimethyl-1-phenyl-1H,1′H-3,4′-bipyrazol-5-yl)-3-(1,2,3,4-tetrahydronaphthalen-1-yl)urea]
< 100 nM | O=C(Nc1c2c(nn1-c1ccccc1)CCC2)N[C@H]1CCCc2ccccc21 [Example 3, (S)-1-(2-phenyl-2,4,5,6-tetrahydrocyclopenta[c]pyrazol-3-yl)-3-(1,2,3,4-tetrahydronaphthalen-1-yl)urea]
100 to 1000 nM | Cc1c(-c2cnn(C)c2)nn(-c2ccccc2)c1NC(=O)N[C@@H]1CCCc2ccccc21 [Example 4, (R)-1-(1′,4-dimethyl-1-phenyl-1H,1′H-3,4′-bipyrazol-5-yl)-3-(1,2,3,4-tetrahydronaphthalen-1-yl)urea]

— patent US10351575B2, “Bicyclic urea, thiourea, guanidine and cyanoguanidine compounds useful for the treatment of pain” (Array BioPharma Inc., priority 2012, dated 2019)
